The test system of one assay is BxPC-3 cell line. Kind of assay: Growth inhibition (GI50) assay, SRB, BxPC-3. It is filed as cell-based. To be noted: Homo sapiens, 120 h, BxPC-3 (KRas wild-type, TP53 mutant, SMAD4 homozygous deletion), 5 days. The source says: (§1) BxPC-3 and PANC-1 cell lines were obtained from American Type Culture Collection (ATCC, Manassas, Va.) and maintained according to the supplier's instructions. Short tandem repeat (STR) profiling was used to verify authenticity of the cell lines. Sixteen STR loci were simultaneously amplified in a multiplex PCR reaction (The Hospital for Sick Children, Toronto, Canada), and the ATCC database was used for comparison, where possible. Cell lines were routinely tested for mycoplasma and used at low passage numbers (<15).
(§2) Cells were seeded at 3000 per 80 μL, into 96-well plates according to cell growth rate 24 hours before compound overlay and cultured at 37° C. and 5% CO2. Compounds were prepared as 10 mM stocks in 100% DMSO. […] After 5 days, cell growth in each well was assessed by the sulforhodamine B (SRB) assay measuring total protein content. […] The SRB was solubilized with 100 μL of 10 mM Tris pH 10.5 per well, and absorbance was read at 570 nm using a SpectraPlus microplate reader (Molecular Devices Corporation). SRB absorbance values were adjusted by subtracting the average of the baseline readings from untreated cells assessed one day after cell seeding. The percentage (%) of relative inhibition of cell growth was calculated by comparing to DMSO-treated cells. GI50s were calculated using GraphPad PRISM software (GraphPad Software Inc., San Diego, Calif.).

For assay [1], the system named is patient-derived pancreatic xenograft models. The assay is described as follows: Orthotopic patient-derived pancreatic xenograft models, mono-therapy. It is filed as in vivo, NOD/SCID mice. The source says: 6 orthotopically implanted patient-derived pancreatic xenograft models with varying growth rates and levels of tumor hypoxia were used in order to investigate the efficiency of the Compound II as a mono-therapy or in combination with Gemcitabine.
The patient-derived pancreatic xenograft models were established by attaching a piece of the patient tumor on the pancreas of 4-5 week old Non-obese diabetic (NOD)/Severe combined immunodeficiency (SCID) mice. The xenograft models closely resemble the morphology of the patient specimen and represent the range of tumor morphologies described in pancreatic cancer patients.
Tumor volume was evaluated by palpation and animals were randomized into treatment groups. Animals were treated with Compound II using a daily dose of 7.5 mg/kg by oral gavage for 21 days for experiments evaluating activity as a mono-therapy, or with 13.5 mg/kg according to a 2-day-on-5-days-off schedule in combination bi-weekly 100 mg/kg Gemcitabine for 21 days.
Tumor weight after completion of the treatment and overall survival were evaluated. Immunofluorescence (IF) staining of xenograft sections was used to evaluate tumor hypoxia and proliferation. The impact of Compound II treatment on survival was examined in 6 animals per group. Mice were followed until the animals either died or had to be euthanized due to oversized tumors.
For orientation: A xenograft is tissue or cells of one species grown in another, often human tumour cells in immunodeficient mice.

The test system of assay [2] is OCIP51 xenograft tumor initiating cells. The assay is described as follows: Limiting dilution assay for tumor initiating cells (TIC). To be noted: 52 mg/kg, tumors harvested 12 h after treatment, preliminary results. It is filed as in vivo, NOD/SCID mice. The procedure: FIG. 2(C) is a schematic overview of the limiting dilution assay. Briefly, xenograft tumors were grown to a diameter of approximately 1 cm and treated with 52 mg/kg Compound II and tumors harvested 12 h after treatment. Excised tumors were mechanically minced and a single cell suspension prepared using a DNAse, Collagenase and Protease cocktail. A sample of the single cell suspension was stained for mouse CD31-FITC and H2K-FITC to establish the mouse cell content. Cells were counted using a haemocytometer and the human content was calculated. 3-6 dilutions of human cells per sample were injected into the flank of NOD/SCID mice. 3 mice were injected into both flanks per dilution. Tumor take rate was observed over the course of 6 month. Tumor initiating frequency was calculated from using the L-Calc software. […] The remaining 3 xenograft models have been injected for the dilutions.

The next assay has as its system PANC-1 cell line. Kind of assay: Growth inhibition (GI50) assay, SRB, PANC-1. To be noted: Homo sapiens, 120 h, PANC-1 (KRas mutant, TP53 mutant, CDKN2A homozygous deletion, SMAD4 wild-type), 5 days. It is filed as cell-based.
Source text: as §1, §2

The next assay has as its system OCIP110 tumors. The assay is described as follows: OCIP110 orthotopic xenograft, Compound II alone or with Cisplatin. To be noted: Compound II 10 mg/kg 2-on/5-off schedule, 21 days. It is filed as in vivo, SCID mice. The procedure:
OCIP110 tumors were implanted orthotopically onto the pancreas of 4-5 week old SCID mice. Tumor volume was evaluated by palpation and animals were randomized into treatment groups. Animals were treated with either Compound II on a 2-on/5-off schedule with 10 mg/kg, a weekly dose of 4 mg/kg Cisplatin or the combination treatment for 21 days. Tumor weight was evaluated when tumors were excised at the end of the treatment.

In the case of `COc1ccc2c(c1)[C@]1(C[C@H]1c1ccc3c(/C=C/c4ccc(CN5CCOCC5)cc4)n[nH]c3c1)C(=O)N2C` [Compound II], the GI50 in the assay with BxPC-3 cell line turned out to be 15 nM; with PANC-1 cell line it was 25 nM. Moreover, in assay [1] (7.5 mg/kg daily by oral gavage for 21 days, mono-therapy, 6 xenograft models), the “Tumor weight after completion of the treatment” value is on record as “significantly reduced tumor weight in 4 of the 6 tested patient-derived pancreatic xenograft models”. In addition, in assay [1] (OCIP51 (highly hypoxic, fast growing) model, 7.5 mg/kg daily oral, 21 days, vehicle 54 days), the medium survival is reported as 103 days. Besides, the overall survival result in assay [1] (mono-therapy for 21 days, responsive models) is listed as “increase in overall survival in a number of responsive models”. The “response to treatment versus tumor hypoxia” value in assay [1] (mono-therapy, highly hypoxic versus medium or low hypoxic models, preliminary results) was “strongest response to Compound II as a mono-therapy was observed in highly hypoxic models”. The “Number of tumor initiating cells (TICs)” value in assay [2] is recorded as “reduced the number of TICs in OCIP51”. Also, in the assay with OCIP110 tumors, the “Tumor weight at the end of the treatment” value was “reduced tumor weight”.

The term GI50 denotes the concentration giving 50% growth inhibition.

For the origin of these results see US9642856B2, “Treatment for pancreatic cancer” (University Health Network, priority 2013, dated 2017).
